Laboratory results from US8323656B2, “Antigen determinant of rheumatoid arthritis-specific autoantibody and use thereof” (priority 2007, dated 2012).

Test system: RA-specific antibodies (4 anti-CCP2-positive sera)
Assay: Indirect (inhibition) ELISA: cross-reactivity of analytes with RA-specific antibodies, immobilized CCP2 as capture antigen
Assay type: binding, human
Set-up: Cross-reactivity of antibodies with the named analyte: concentration or dose not given beside the values
Conditions: for Cross-reactivity (%) of RA-specific antibody, modified α-amino acid: alkylation + acetylation: acetylated amino acid methyl ester of the amino acid named; for Cross-reactivity (%) of RA-specific antibody, modified α-amino acid: alkylation + acetylation / Cross-reactivity (%) of RA-specific antibody, modified α-amino acid: acetylation / Cross-reactivity (%) of RA-specific antibody, modified α-amino acid: alkylation: 0 = less than 1%; for Cross-reactivity (%) of RA-specific antibody, modified α-amino acid: acetylation: acetylated derivative of the amino acid named; for Cross-reactivity (%) of RA-specific antibody, modified α-amino acid: alkylation: methyl esterified (Me) derivative of the amino acid named; for Cross-reactivity (%) of RA-specific antibody, α-amino acid: unmodified α-amino acid, 0 = cross-reactivity less than 1%; for Cross-reactivity of antibodies with the named analyte: the analyte itself is named; for Inhibition of antibody binding to the immobilized CCP2: FIG. 1 and 2, analyte at 50 mM, 4 sera, result in words
Description: A complete set of 21 amino acids and their derivatives were used as analytes to determine if any analyte inhibited the action of the detector antibody in binding to the capture antigen. Determination was made by observation at the single AA level through a series of moving windows of different derivatization. Following this procedure ensures that no antigenic elements of the epitope are missed as long as the possible AA derivatives are available. The analysis began in the fluid phase, wherein initially, the detector antibody was incubated with each of the analytes. After overnight incubation at 4° C., 100 μl of analyte preadsorbed detector antibody per well were added into 96-well microplate which immobilized CCP2 on the surface, and was incubated for 1 hour at room temperature with shaking. […] The reaction was stopped by adding 100 μl of 0.5 M H2SO4 per well and the results were estimated at A450 nm.
The concept of indirect ELISA was based upon an inhibition test between an unknown amount of analyte and a known amount of immobilized antigen for a limited number of detector antibody binding-sites. If the contents of detector antibody and immobilized antigen are kept constant, the distribution of detector antibody between immobilized antigen bound detector antibody and analyte bound detector antibody is dependent upon the amount of sample analyte. The mass of immobilized antigen bound detector antibody is inversely proportional to the amount of analyte bound detector antibody.
(§1) As described in FIG. 1, Amino Acid Profiles for the Antigenic Determinant, ELISA was carried out with sera from Euro-diagnostica (serum 1) and from three patients (serum 2, 3, and 4) with RA to CCP2 positive at various concentrations of different amino acids. […] The horizontal line at 100% represents the control percent binding of the CCP2 to the antibody.
as §1, with “2, Acetylamino” for “1, Amino”, “acetylamino” for “amino”
as §1, with “3, Alkylamino” for “1, Amino”, “alkylamino” for “amino”
as §1, with “4, Acetylamino” for “1, Amino”, “Acid Methyl Ester” for “Acid”, “acetylamino acid methyl esters.” for “amino acids.”

SMILES | Cross-reactivity (%) of RA-specific antibody, modified α-amino acid: alkylation + acetylation [%] | Cross-reactivity (%) of RA-specific antibody, modified α-amino acid: acetylation [%] | Cross-reactivity (%) of RA-specific antibody, modified α-amino acid: alkylation | Cross-reactivity (%) of RA-specific antibody, α-amino acid [%] | Cross-reactivity of antibodies with the named analyte | Inhibition of antibody binding to the immobilized CCP2
C[C@H](N)C(=O)O [Alanine] | 0 | 0 | ^Me0% | 0 |  | 
COC(=O)[C@@H](N)CCCN=C(N)N [Arg-Me] |  |  |  |  | 6% | 
N=C(N)NCCC[C@H](N)C(=O)O [Arginine] | 13 | 6 | ^Me5% | 0 | zero | 
NC(=O)C[C@H](N)C(=O)O [Asparagine] | 0 | 0 | ^Me0% | 0 |  | 
N[C@@H](CC(=O)O)C(=O)O [Aspartic acid] | 0 | 0 | ^Me0% | 0 |  | 
CCCCOC(=O)[C@@H](N)CCCNC(N)=O [Cit-Be] |  |  |  |  | 124% | 
CCOC(=O)C(N)CCCNC(N)=O (stereo not shown) [Cit-Ee] |  |  |  |  | 72% | 
COC(=O)C(N)CCCNC(N)=O (stereo not shown) [Cit-Me] |  |  |  |  | 81% | 
CCCOC(=O)C(N)CCCNC(N)=O (stereo not shown) [Cit-Pe] |  |  |  |  | 115% | 
COC(=O)[C@@H](N)CS [Cys-Me] |  |  |  |  | 48% | 
N[C@@H](CS)C(=O)O [Cysteine] | 57 | 48 | ^Me50% | 0 | 0% | limited capability to inhibit
N[C@@H](CCC(=O)O)C(=O)O [Glutamic acid] | 0 | 0 | ^Me0% | 0 |  | 
NC(=O)CC[C@H](N)C(=O)O [Glutamine] | 0 | 0 | ^Me0% | 0 |  | 
NCC(=O)O [Glycine] | 0 | 0 | ^Me0% | 0 |  | 
N[C@@H](Cc1c[nH]cn1)C(=O)O [Histidine] | 0 | 0 | ^Me0% | 0 |  | 
CC[C@H](C)[C@H](N)C(=O)O [Isoleucine] | 0 | 0 | ^Me0% | 0 |  | 
CC(C)C[C@H](N)C(=O)O [Leucine] | 0 | 0 | ^Me0% | 0 |  | 
NCCCC[C@H](N)C(=O)O [Lysine] | 0 | 0 | ^Me0% | 0 |  | 
COC(=O)C(N)CCSC (stereo not shown) [Met-Me] |  |  |  |  | 0% | 

SMILES | Cross-reactivity (%) of RA-specific antibody, modified α-amino acid: alkylation + acetylation [%] | Cross-reactivity (%) of RA-specific antibody, modified α-amino acid: acetylation [%] | Cross-reactivity (%) of RA-specific antibody, modified α-amino acid: alkylation | Cross-reactivity (%) of RA-specific antibody, α-amino acid [%] | Cross-reactivity of antibodies with the named analyte | Inhibition of antibody binding to the immobilized CCP2
CSCC[C@H](N)C(=O)O [Methionine] | 0 | 0 | ^Me0% | 0 | 0% | 
N[C@@H](Cc1ccccc1)C(=O)O [Phenylalanine] | 0 | 0 | ^Me0% | 0 |  | 
O=C(O)[C@@H]1CCCN1 [Proline] | 0 | 0 | ^Me0% | 0 |  | 
COC(=O)[C@@H](N)CO [Ser-Me] |  |  |  |  | 0% | 
N[C@@H](CO)C(=O)O [Serine] | 0 | 0 | ^Me0% | 0 | 0% | 
C[C@@H](O)[C@H](N)C(=O)O [Threonine] | 0 | 0 | ^Me0% | 0 |  | 
N[C@@H](Cc1c[nH]c2ccccc12)C(=O)O [Tryptophan] | 0 | 0 | ^Me0% | 0 |  | 
N[C@@H](Cc1ccc(O)cc1)C(=O)O [Tyrosine] | 0 | 0 | ^Me0% | 0 |  | 
CC(C)[C@H](N)C(=O)O [Valanine] | 0 | 0 | ^Me0% | 0 |  | 
COC(=O)[C@H](CCCNC(=N)N)NC(C)=O [acetyl-Arg-Me] |  |  |  |  | 13% | 
CC(=O)N[C@@H](CCCN=C(N)N)C(=O)O [acetyl-Arg] |  |  |  |  | 5% | limited inhibition
COC(=O)C(CCCNC(N)=O)NC(C)=O (stereo not shown) [acetyl-Cit-Me] |  |  |  |  | 100% | 
CC(=O)N[C@@H](CCCNC(N)=O)C(=O)O [acetyl-Cit] |  |  |  |  | 74% | strong inhibition
COC(=O)[C@H](CS)NC(C)=O [acetyl-Cys-Me] |  |  |  |  | 57% | 
CC(=O)N[C@@H](CS)C(=O)O [acetyl-Cys] |  |  |  |  | 50% | strong inhibition
COC(=O)[C@H](CCSC)NC(C)=O [acetyl-Met-Me] |  |  |  |  | 0% | 
CSCCC(NC(C)=O)C(=O)O (stereo not shown) [acetyl-Met] |  |  |  |  | 0% | 
COC(=O)[C@H](CO)NC(C)=O [acetyl-Ser-Me] |  |  |  |  | 0% | 
CC(=O)N[C@@H](CO)C(=O)O [acetyl-Ser] |  |  |  |  | 0% | 
